For series [1], the system named is mesenchymal stem cells (MSCs). Put plainly: Mineralization of mesenchymal stem cells (Alizarin red staining). Particulars: 100 μM. In kind it is cell-based.
A short description of series [2]: Stability of the polypeptide under NMR conditions in phosphate buffer. The following applies: without protein, 2 weeks. It is filed as physicochemical. Here is the method:
NMR experiments were run at 500.13 MHz for ^1H on a Bruker AVANCE 500 spectrometer with a Linux PC workstation, using standard 5 mm or Shigemi 3 mm tubes with susceptibility matched to solvent ^2H2O/Water sample tubes. The spectra of the polypeptide Pep8 at 0.1, 0.2, 0.4 or 1 mM sample concentrations were recorded in 50 mM sodium phosphate buffer at pH 7.4, prepared in 95% H2O and 5% ^2H2O. Two-dimensional NMR spectra were recorded in the phase-sensitive mode using the States—TPPI method (States et al. 1982). All experiments were carried out using the WATERGATE pulse sequence for water suppression (Piotto et al. 1992) or using the excitation sculpting water suppression (Hwang et al. 1995) to eliminate solvent signal in H2O/^2H2O 95:5 solution. The two-dimensional COSY, TOCSY and NOESY spectra were recorded at 280 K. TOCSY spectra were recorded using a MLEV-17 spin-lock sequence (Bax et al. 1985) with a mixing time (τm) of 35 and 70 ms, respectively. 2D NOESY experiments were recorded at a mixing time (τm) of 100, 200 or 500 ms. The heteronuclear spectra ^1H-^13C HSQC were recorded at 280 K in the same conditions. […] Transferred nuclear Overhauser effect (TRNOESY) spectra of Pep8 with RANK receptor-Fc protein were recorded using a mixing time (Tm) of 100, 200 or 500 ms.

The subject of another series is murine CD11b+ cells. It is filed as cell-based, mouse. An excerpt:
(§1) Human peripheral blood mononuclear cells (PBMCs) were isolated by centrifugation over Ficoll gradient (Sigma, Saint Quentin Fallavier, France). CD14^+ cells were magnetically labeled with CD14 Microbeads and positively selected by MACS technology (Miltenyi Biotec, Paris, France) as described previously (Duplomb et al. 2008). CD11b^+ monocytes were purified from murine bone marrow cells obtained by flushing the bone marrow from femora and tibiae of 4-week-old C57BL6 male mice, using MACS microbeads (Baud'huin et al. 2010). The purity of cell preparations was around 96%, as controlled by flow cytometry. Generation of osteoclasts from human CD14^+ and murine CD11b^+ monocytes was performed as described previously (Duplomb et al. 2008, Baud′huin et al. 2010). Briefly, purified cells were cultured in α-minimum essential medium (α-MEM, Gibco/Invitrogen, USA) with 10% fetal calf serum and 25 ng/mL human/murine macrophage colony-stimulating factor (M-CSF, R&D Systems, Abindgton, UK). After 3 days of culture, cell medium was replaced by fresh medium containing M-CSF and recombinant human RANKL (100 ng/mL, R&D system), supplemented with or without a polypeptide of interest (0.5-100 μM) or 50 ng/mL human OPG (R&D Systems) used as a reference inhibitor. Soluble cytokines, receptor and polypeptides were renewed every 3 days until multinucleated osteoclasts had formed. After 12 days of culture for CD14^+ cells and 15 days for CD11b^+ cells, osteoclasts were visualized by TRAP staining (Sigma, France) and cells formed with three or more nuclei were manually counted and analyzed statistically.

A further series has as its target T1, hRANK (Homo sapiens, UniProt Q9Y6Q6).
T1 construct: For NMR experiments with soluble RANK receptor-Fc (R&D Systems); purchased R&D Systems
T1 sequence (Q9Y6Q6 30-212 limits assumed): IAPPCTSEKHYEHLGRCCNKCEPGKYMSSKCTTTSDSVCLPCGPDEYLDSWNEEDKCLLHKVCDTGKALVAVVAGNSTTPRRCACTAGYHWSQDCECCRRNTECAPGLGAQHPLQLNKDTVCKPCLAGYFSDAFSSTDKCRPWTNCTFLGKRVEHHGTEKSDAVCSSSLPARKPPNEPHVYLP
Put plainly: Surface plasmon resonance (Biacore) binding to immobilized RANK-Fc. Particulars: SPR, 1:1 Langmuir model. The method, then: Biosensor experiments were carried out on a BIAcore 3000 instrument (BIAcore) as published previously (Baud′Huin et al. 2009). Recombinant purified RANKL (2 μg/mL in 5 mM maleate, pH 5.75) or RANK-Fc carrier-free (5 μg/mL in sodium acetate buffer, pH 5.0) were covalently immobilized to the dextran matrix of a CM5 sensor chip (BIAcore) at a flow rate of 5 μL/min. Immobilization levels ranging from 400 to 3000 Response Units (RU) for RANKL or 5000 RU for RANK were obtained. Binding assays were performed at 25° C. in 10 mM Hepes buffer, pH 7.4. The association phase was 180 seconds followed by a dissociation phase in the same buffer. Polypeptides binding studies to RANK or RANKL were determined using single cycle kinetics, starting with 100 μM of the polypeptide of interest followed by 2-fold serial dilutions (ranging from 100 to 0.78 μM). The sensorgrams were fitted to calculate the equilibrium-dissociation constants using the Langmuir 1:1 model with BiaEval 4.1 software (BIAcore). RANK-Fc CF, RANKL and OPG carrier-free were obtained from R&D Systems (Minneapolis, Minn., USA).
Background: Surface plasmon resonance follows binding to a sensor surface in real time, without labels.

A further series deals with human CD14+ monocytes. It is filed as cell-based.
Source text: as §1

Ends that are not written are not given here.

As for NVLKLCSGE [Pep8, NVLKLCSGE], the “effect on mineralization of MSCs” value in series [1] is reported as “nor did the polypeptide at 100 μM exhibit any effect”. In addition, the “stability under experimental NMR conditions” value in series [2] was “remained stable”. Also, the concentration for half-maximal inhibition (IC50) in the series on murine CD11b+ cells stood at 30 µM; with human CD14+ monocytes, 40 µM. Besides, the “IC50 of osteoclast formation” value in the series with murine CD11b+ cells is 29 µg/mL. The “number of TRAP-positive multinucleated cells, % of the number formed without the polypeptide” value in the series on murine CD11b+ cells (100 μM, murine cultures) stood at 28%; in the series with human CD14+ monocytes (100 μM, human cultures), 39%. Besides, the kon on hRANK (read-out: association rate constant (kon)) was 495 M⁻¹ s⁻¹. For the same sequence, the dissociation rate constant (koff) at hRANK (read-out: dissociation rate constant (koff)) came to 0.0052 s⁻¹. The “inhibitory activity on osteoclastogenesis” value in the series on human CD14+ monocytes (50 μM polypeptide, screen of 8 new polypeptides) is “inhibitory activity similar to that of the RANKL-targeting mimetics OP3-4 and WP9QY”. Also, the “osteoclast development with polypeptide alone” value in the series on human CD14+ monocytes (absence of RANKL) is given as “did not modulate osteoclast development”.

A word on the IC50: it is the point on the concentration scale where inhibition reaches its midpoint. Read a low IC50 as inhibition by little substance. What is called kon is the rate constant with which the complex forms. The koff is the rate constant with which the complex falls apart.

For the origin of these results see patent publication US9403873B2, “Peptides targeting receptor activator of nuclear factor-κB (RANK) and their applications” (UNIVERSITE DE NANTES, priority 2011, dated 2016).
